Assays:
3T3-L1 preadipocytes = test: 3T3-L1 adipogenesis assay (lipid accumulation, adipogenic gene expression); type: cell-based; settings: for Adipogenesis 3T3-L1 (result in words): 0.02-20 μM, 5 days after MDI induction; for Adipogenic gene expression (Fabp4, Fsp27, Lpl), QPCR: 3T3-L1, Figure 2A; for Induction of adipogenesis in 3T3-L1 preadipocytes, doses: lipid accumulation, Nile red/Hoechst, Figure 2A
Outline: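 After 2-day MDI induction with biotin and pantothenate, 3T3-L1 cells were treated 5 days with chemicals at 0.02–20 μM (0.1% DMSO; 10 μM if toxic). Lipid read as Nile red/Hoechst fluorescence ratio; adipogenic genes by QPCR, 2^ΔΔCt versus 36b4, normalized to DMSO.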

[1] = system: mouse bone marrow-derived mesenchymal stem cells (mBMSCs); type: cell-based; settings: for Induction of adipogenesis in mBMSCs, doses: lipid accumulation, Nile red/Hoechst; for Induction of adipogenesis in mBMSCs, doses / Adipogenic gene expression (Fabp4, Fsp27, Lpl), QPCR: Figure 2B; for Adipogenic gene expression (Fabp4, Fsp27, Lpl), QPCR: mBMSCs
Experimental: A total of 8 × 10^4 cells/well mouse bone marrow-derived mesenchymal stem cells (mBMSCs) (OriCell™) were seeded in 12-well plates in basic medium: high-glucose DMEM (Hyclone) containing 10% calf bovine serum (Premium Select, Atlanta Biologicals), 100 IU/mL penicillin, 100 μg/mL streptomycin, and 1 mM sodium pyruvate. mBMSCs were induced to differentiate in differentiation media (low glucose αMEM containing 15% fetal bovine serum (Premium Select, Atlanta Biologicals), 100 IU/mL penicillin, 100 μg/mL streptomycin and 2 mM L-glutamine) with adipogenic cocktail (500 μM isometylbutylxanthine, 1 μM dexamethasone, 5 μg/mL insulin) and either 500 nM ROSI, 50 nM TBT or ToxCast™ chemicals (as noted for 3T3-L1 cells) for 14 days, replacing the media every 3 days.
Cells were either fixed in 3.7% formaldehyde in phosphate-buffered saline (PBS) for 30 min at room temperature (RT) for lipid quantitation, or homogenized in TriPure (Roche, Mannheim, Germany) for gene expression analysis. For lipid quantitation, fixed cells were washed twice with PBS and maintained in PBS overnight at 4°C to release residual phenol red. Background of cells were measured prior to staining. Cells were stained with 1 μg/mL Nile red (CAS No. 7385-67-3) (to detect lipid accumulation) and 1 μg/mL Hoechst 33342 (ThermoFisher Scientific) (to detect nuclei as a surrogate for cell number) in PBS for 15 min in the dark at RT and washed twice with PBS. […] Background values of Hoechst and Nile red were subtracted from the RFUs after staining and the ratio RFUNile Red:RFUHoechst was calculated. Data are represented as mean ± SEM. Total RNA was isolated using TriPure (Roche) as recommended by the manufacturer. Reverse transcription and quantitative real-time RT-PCR (QPCR) were performed using Transcriptor RT and SYBR® Green Master Mix (Roche). cDNA was quantitated in a LightCycler® 480 System (Roche Diagnostics, Basel, Switzerland) using primer sets listed in Table S4. Each primer set amplified a single band as determined by gel electrophoresis and melting curve analysis. QPCR data were analyzed using the 2^ΔΔCt method ([Livak and Schmittgen 2001]) relative to ribosomal protein 36b4, normalizing to 0.1% DMSO vehicle. Error bars represent the SEM from four to six biological replicates calculated using standard propagation of error ([Bevington and Robinson 2003]).

SMILES | Adipogenesis 3T3-L1 (result in words) (3T3-L1 preadipocytes) | Adipogenic differentiation of mBMSCs (result in words) ([1]; 14 days, Figure 7) | Adipogenic gene expression (Fabp4, Fsp27, Lpl), QPCR (3T3-L1 preadipocytes) | Induction of adipogenesis in 3T3-L1 preadipocytes, doses (3T3-L1 preadipocytes) | Induction of adipogenesis in mBMSCs, doses ([1]; 14 days) | Adipogenic gene expression (Fabp4, Fsp27, Lpl), QPCR [1] | Lipid accumulation: TOXIC mark in place of bar (3T3-L1 preadipocytes) | Concentration toxic to 3T3-L1 cells (3T3-L1 preadipocytes; mouse, 5 days) | Lipid accumulation: TOXIC mark in place of bar [1] | Concentration toxic to mBMSCs ([1]; mouse, 14 days)
Fc1ccc(Oc2ccnc3cc(Cl)cc(Cl)c23)cc1 [Quinoxyfen] | Positive | could differentiate these uncommitted stem cells into adipocytes |  |  |  |  |  |  |  | 
CCC(C)(C)C(=O)OC1=C(c2ccc(Cl)cc2Cl)C(=O)OC12CCCCC2 [Spirodiclofen] | Positive |  | increases | induced adipogenesis at all doses tested | induced adipogenesis at 10 and 20 μM | increases |  |  |  | 
O=[N+]([O-])c1cc(C(F)(F)F)c(Cl)c([N+](=O)[O-])c1Nc1ncc(C(F)(F)F)cc1Cl [Fluazinam] | Negative |  |  |  |  |  |  |  |  | 
CCC(C)(NC(=O)c1cc(Cl)c(C)c(Cl)c1)C(=O)CCl (centres unmarked) [Zoxamide] | Positive |  | increases | induced adipogenesis at the lowest dose | induced differentiation at 2 and 10 μM | increases | TOXIC | ≥ 10 µM | TOXIC | ≥ 20 µM

From article PMC4977052, “On the Utility of ToxCast™ and ToxPi as Methods for Identifying New Obesogens” (Environmental Health Perspectives, 2016)
